Data: patent US8703821B2, “Dialkyl ether delivery agents” (Emisphere Technologies Inc., priority 2006, dated 2014)

Experiments:
[1] = Insulin oral delivery in rats; assay type: in vivo, rat; conditions: oral gavage to fasted male Sprague-Dawley rats; dosing solution delivery agent 200 mg/ml + human recombinant insulin 0.5 mg/ml
[2] = Heparin (LMWH) oral delivery in rats, plasma LMWH by anti-Factor Xa assay; assay type: in vivo, rat; conditions: male Sprague-Dawley rats, delivery agent 300 mg/kg, LMWH 100 IU/kg, volume 3 ml/kg, 25% aqueous propylene glycol
Method: Oral dosing solutions containing delivery agent compound and heparin sodium USP were prepared in 25% aqueous propylene glycol. Either the sodium salt of the delivery agent compound was used or the free acid was converted to the sodium salt with one equivalent of sodium hydroxide. The delivery agent compound and heparin (about 166-182 IU/mg) were mixed by vortex as dry powders. This dry mixture was dissolved in 25% v/v aqueous propylene glycol, vortexed, and placed in a sonicator (about 37° C.). The pH was adjusted to about 7 (6.5-8.5) with aqueous NaOH (2N). The dosing solution was sonicated to produce a clear solution. The final volume was adjusted to about 3.0 ml.
Male Sprague-Dawley rats were fasted for 24 hours and anesthetized with ketamine hydrochloride (88 mg/kg) intramuscularly immediately prior to dosing and again as needed to maintain anesthesia. A dosing group of five animals were administered one of the dosing solutions. An 11 cm Rusch 8 French catheter was adapted to a 1 ml syringe with a pipette tip. […]
Citrated blood samples were collected by cardiac puncture following the administration of ketamine (88 mg/kg), typically at 0.25, 0.5, 1.0 and 1.5 hours after dosing. […] LMWH absorption was verified by an increase in plasma LMWH measured by the anti-Factor Xa assay CHROMOSTRATE™ Heparin anti-Xa assay (available from Organon Teknika Corporation, Durham, N.C.).

For O=C(O)COCCc1ccc(F)cc1 [Compound 7], the “% Glucose Cmin (Rat)” value [1] was −41.9% and the melting point was 67 to 68 °C.

In the case of O=C(O)COCCc1cccc(F)c1 [Compound 9], the “% Glucose Cmin (Rat)” value [1] is reported as −29.3% and the melting point is reported as 36 to 37 °C.

In the case of O=C(O)COCc1ccccc1F [Compound 18], the “% Glucose Cmin (Rat)” value [1] is reported as −14.6%.

With COc1ccccc1CCOCC(=O)O [Compound 36] the “% Glucose Cmin (Rat)” value [1] was −4.4%.

For O=C(O)COC1CCc2ccccc21 (stereo not drawn) [Compound 41], the “% Glucose Cmin (Rat)” value [1] was −27.8%.

With O=C(O)COCc1cccc(F)c1 [Compound 17] the “% Glucose Cmin (Rat)” value [1] was −17.6%.

With O=C(O)COCCCCCc1ccccc1 [Compound 32] the “% Glucose Cmin (Rat)” value [1] was −15.1%.

In the case of O=C(O)COCc1ccc(F)cc1 [Compound 16], the “% Glucose Cmin (Rat)” value [1] is reported as −18.1%.

With Cc1ccc(COCC(=O)O)c(C)c1 [Compound 22] the melting point was 54 to 56 °C.

In the case of COc1ccc(CCCCOCC(=O)O)cc1 [Compound 28], the “% Glucose Cmin (Rat)” value [1] is reported as −10.6%.

In the case of Cc1cc(C)c(COCC(=O)O)c(C)c1 [Compound 19, (2,4,6-Trimethyl-benzyloxy)-acetic acid], the “% Glucose Cmin (Rat)” value [1] is reported as −27.5% and the melting point is reported as 81 to 83 °C.

With O=C(O)COCCc1ccc(F)cc1Cl [Compound 37] the “% Glucose Cmin (Rat)” value [1] was −30.0%.

In the case of O=C(O)COCCc1cccc(Cl)c1 [Compound 6], the “% Glucose Cmin (Rat)” value [1] is reported as −20.9%.

In the case of O=C(O)COCCc1ccc(Cl)cc1 [Compound 4], the “% Glucose Cmin (Rat)” value [1] is reported as −54.3% and the melting point is reported as 51 to 52 °C.

In the case of Cc1ccc(COCC(=O)O)cc1 [Compound 10], the “% Glucose Cmin (Rat)” value [1] is reported as −46.6% and the melting point is reported as 44 to 45 °C.

For O=C(O)COCCc1ccccc1F [Compound 8], the “% Glucose Cmin (Rat)” value [1] was −33.5%.

In the case of O=C(O)COCCc1ccccc1Cl [Compound 5], the “% Glucose Cmin (Rat)” value [1] is reported as −39.7%.

In the case of O=C(O)COCCc1ccccc1 [Compound 34], the “% Glucose Cmin (Rat)” value [1] is reported as −32.2%.

In the case of COc1ccc(CCOCC(=O)O)cc1 [Compound 33], the “% Glucose Cmin (Rat)” value [1] is reported as −9.8%.

With O=C(O)COCCCc1ccccc1 [Compound 35] the “% Glucose Cmin (Rat)” value [1] was −26.1%.

For Cc1cc(C)cc(CCOCC(=O)O)c1 [Compound 25], the “% Glucose Cmin (Rat)” value [1] was −4.6% and the melting point was 50 to 51 °C.

For Cc1cccc(CCOCC(=O)O)c1 [Compound 3, Sodium (2-m-Tolyl-ethoxy)-acetate], the “% Glucose Cmin (Rat)” value [1] was −30.1%.

In the case of COc1ccc(CCCOCC(=O)O)cc1 [Compound 29], the “% Glucose Cmin (Rat)” value [1] is reported as −36.3%.

In the case of Cc1ccc(COCC(=O)O)cc1Cl [Compound 23], the “% Glucose Cmin (Rat)” value [1] is reported as −5.5% and the melting point is reported as 53 to 54 °C.

In the case of Cc1ccccc1CCCOCC(=O)O [Compound 31], the “% Glucose Cmin (Rat)” value [1] is reported as −6.1%.

With Cc1ccc(CCCOCC(=O)O)cc1 [Compound 30] the “% Glucose Cmin (Rat)” value [1] was −19.5%.

In the case of O=C(O)COCCCc1ccc(Cl)cc1 [Compound 42], the “% Glucose Cmin (Rat)” value [1] is reported as −20.4%.

With O=C(O)COCc1ccc(Cl)cc1 [Compound 13] the “% Glucose Cmin (Rat)” value [1] was −45.3%.

With O=C(O)COCc1ccccc1Cl [Compound 15] the “% Glucose Cmin (Rat)” value [1] was −39.9%.

For O=C(O)COC1Cc2ccccc2C1 [Compound 40], the “% Glucose Cmin (Rat)” value [1] was −15.8%.

With O=C([O-])CCCCCCCNC(=O)c1ccccc1O.[Na+] [Delivery Agent A, monosodium salt of N-(8-[2-hydroxybenzoyl]-amino)caprylic acid] the “Mean Peak Plasma LMWH Concentration (IU/ml) ± SD” value [2] was 0.984 IU/ml.

For O=C(O)COCCc1ccccc1C(F)(F)F [Compound 27], the “% Glucose Cmin (Rat)” value [1] was −11.3%.

For Cc1ccccc1CCOCC(=O)O [Compound 1, (2-o-Tolyl-ethoxy)-acetic acid], the “% Glucose Cmin (Rat)” value [1] was −36.5%.

With O=C(O)COCc1cccc(Cl)c1 [Compound 14] the “% Glucose Cmin (Rat)” value [1] was −35.3%.

For O=C(O)COCCc1ccc(Br)cc1 [Compound 39], the “% Glucose Cmin (Rat)” value [1] was −31.6%.

For Cc1ccc(CCOCC(=O)O)cc1 [Compound 2], the “% Glucose Cmin (Rat)” value [1] was −54.3% and the melting point was 50 to 52 °C.

In the case of Cc1ccc(C)c(COCC(=O)O)c1 [Compound 21], the “% Glucose Cmin (Rat)” value [1] is reported as −35.0% and the melting point is reported as 74 to 75 °C.

Cc1cc(C)c(C)c(COCC(=O)O)c1C [Compound 20] showed a melting point of 103 to 105 °C.

In the case of Cc1ccc(C)c(CCOCC(=O)O)c1 [Compound 24], the “% Glucose Cmin (Rat)” value [1] is reported as −24.7% and the melting point is reported as 42 to 43 °C.

For O=C(O)COCCCCc1ccccc1 [Compound 26], the “% Glucose Cmin (Rat)” value [1] was −21.0%.

With Cc1cccc(COCC(=O)O)c1 [Compound 11] the “% Glucose Cmin (Rat)” value [1] was −23.7%.
